In US20090311217A1, “3-SUBSTITUTED-1H-INDOLE COMPOUNDS, THEIR USE AS MTOR KINASE AND PI3 KINASE INHIBITORS, AND THEIR SYNTHESES” (priority 2008, published 2009):

Assays:
Type in all cases: biochemical
[1] = target: PI3K-gamma (Homo sapiens, UniProt P48736); test: PI3K-gamma fluorescence polarization assay; details: PI3Kγ Avg. IC50
Summary of the method: (§1)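 Each isoform (5 ng) phosphorylated 2.5 μM diC8-PI(4,5)P2 at 25 μM ATP for one hour at 25° C in the presence of inhibitor. Reactions were then stopped with EDTA, and product was detected by fluorescence polarization using a GST-GRP1 PH domain and a BODIPY-TMR-labelled IP4 tracer.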

[2] = target: PI3K-alpha (Homo sapiens, UniProt P42336); test: PI3K-alpha fluorescence polarization assay; details: read-out: PI3Kα Avg. IC50
PI3K-alpha, sequence (P42336 whole entry, species assumed): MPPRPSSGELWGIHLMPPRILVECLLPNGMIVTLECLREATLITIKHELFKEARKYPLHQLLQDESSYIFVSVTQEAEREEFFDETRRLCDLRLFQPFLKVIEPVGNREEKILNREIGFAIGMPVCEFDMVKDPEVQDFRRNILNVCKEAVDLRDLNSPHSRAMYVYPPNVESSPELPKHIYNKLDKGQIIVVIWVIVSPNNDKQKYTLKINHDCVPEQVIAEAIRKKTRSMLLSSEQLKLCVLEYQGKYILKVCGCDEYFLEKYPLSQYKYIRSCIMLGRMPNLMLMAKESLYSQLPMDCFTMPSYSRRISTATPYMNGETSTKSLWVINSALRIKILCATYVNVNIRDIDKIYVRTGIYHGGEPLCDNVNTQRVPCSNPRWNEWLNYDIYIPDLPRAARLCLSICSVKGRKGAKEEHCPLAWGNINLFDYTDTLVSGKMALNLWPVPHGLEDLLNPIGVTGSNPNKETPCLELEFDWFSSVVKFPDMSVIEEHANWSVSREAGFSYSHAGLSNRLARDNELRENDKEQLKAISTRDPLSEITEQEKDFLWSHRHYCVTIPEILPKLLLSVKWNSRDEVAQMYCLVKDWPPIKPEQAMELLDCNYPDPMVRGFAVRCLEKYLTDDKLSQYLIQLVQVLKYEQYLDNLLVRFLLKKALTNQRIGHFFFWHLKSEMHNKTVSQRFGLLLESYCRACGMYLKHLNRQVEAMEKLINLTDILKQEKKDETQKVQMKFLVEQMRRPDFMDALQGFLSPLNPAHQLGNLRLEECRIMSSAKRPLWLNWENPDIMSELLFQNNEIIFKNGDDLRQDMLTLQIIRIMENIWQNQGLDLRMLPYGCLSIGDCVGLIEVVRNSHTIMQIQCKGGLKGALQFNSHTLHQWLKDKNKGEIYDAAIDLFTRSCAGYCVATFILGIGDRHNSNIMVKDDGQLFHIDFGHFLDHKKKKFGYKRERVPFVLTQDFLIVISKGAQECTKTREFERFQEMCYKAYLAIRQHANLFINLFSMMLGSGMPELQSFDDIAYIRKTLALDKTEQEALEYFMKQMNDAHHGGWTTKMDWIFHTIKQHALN
PI3K-alpha, sequence (P27986 whole entry partner, species assumed): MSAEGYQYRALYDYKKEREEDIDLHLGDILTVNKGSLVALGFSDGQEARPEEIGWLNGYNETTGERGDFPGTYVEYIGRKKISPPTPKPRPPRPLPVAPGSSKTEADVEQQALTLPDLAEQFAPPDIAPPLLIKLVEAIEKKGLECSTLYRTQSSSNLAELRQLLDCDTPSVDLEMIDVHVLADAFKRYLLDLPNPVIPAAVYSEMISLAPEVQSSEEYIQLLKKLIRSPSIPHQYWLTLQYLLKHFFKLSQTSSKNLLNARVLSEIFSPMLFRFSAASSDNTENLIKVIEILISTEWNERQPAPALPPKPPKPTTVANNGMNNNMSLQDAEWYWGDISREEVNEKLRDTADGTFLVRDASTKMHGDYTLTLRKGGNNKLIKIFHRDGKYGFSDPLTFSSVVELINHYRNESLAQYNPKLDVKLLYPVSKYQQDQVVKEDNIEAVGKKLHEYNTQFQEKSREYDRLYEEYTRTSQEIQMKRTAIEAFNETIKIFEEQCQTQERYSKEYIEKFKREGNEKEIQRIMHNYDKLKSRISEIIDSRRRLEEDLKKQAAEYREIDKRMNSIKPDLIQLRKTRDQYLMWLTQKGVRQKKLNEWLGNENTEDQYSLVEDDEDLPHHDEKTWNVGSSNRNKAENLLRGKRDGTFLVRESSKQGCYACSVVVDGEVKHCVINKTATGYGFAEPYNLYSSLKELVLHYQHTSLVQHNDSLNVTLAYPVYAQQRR

[3] = target: PI3K-delta (Homo sapiens, UniProt O00329); test: PI3K-delta fluorescence polarization assay; details: read-out: PI3Kδ Avg. IC50
PI3K-delta, sequence (O00329 whole entry, species assumed): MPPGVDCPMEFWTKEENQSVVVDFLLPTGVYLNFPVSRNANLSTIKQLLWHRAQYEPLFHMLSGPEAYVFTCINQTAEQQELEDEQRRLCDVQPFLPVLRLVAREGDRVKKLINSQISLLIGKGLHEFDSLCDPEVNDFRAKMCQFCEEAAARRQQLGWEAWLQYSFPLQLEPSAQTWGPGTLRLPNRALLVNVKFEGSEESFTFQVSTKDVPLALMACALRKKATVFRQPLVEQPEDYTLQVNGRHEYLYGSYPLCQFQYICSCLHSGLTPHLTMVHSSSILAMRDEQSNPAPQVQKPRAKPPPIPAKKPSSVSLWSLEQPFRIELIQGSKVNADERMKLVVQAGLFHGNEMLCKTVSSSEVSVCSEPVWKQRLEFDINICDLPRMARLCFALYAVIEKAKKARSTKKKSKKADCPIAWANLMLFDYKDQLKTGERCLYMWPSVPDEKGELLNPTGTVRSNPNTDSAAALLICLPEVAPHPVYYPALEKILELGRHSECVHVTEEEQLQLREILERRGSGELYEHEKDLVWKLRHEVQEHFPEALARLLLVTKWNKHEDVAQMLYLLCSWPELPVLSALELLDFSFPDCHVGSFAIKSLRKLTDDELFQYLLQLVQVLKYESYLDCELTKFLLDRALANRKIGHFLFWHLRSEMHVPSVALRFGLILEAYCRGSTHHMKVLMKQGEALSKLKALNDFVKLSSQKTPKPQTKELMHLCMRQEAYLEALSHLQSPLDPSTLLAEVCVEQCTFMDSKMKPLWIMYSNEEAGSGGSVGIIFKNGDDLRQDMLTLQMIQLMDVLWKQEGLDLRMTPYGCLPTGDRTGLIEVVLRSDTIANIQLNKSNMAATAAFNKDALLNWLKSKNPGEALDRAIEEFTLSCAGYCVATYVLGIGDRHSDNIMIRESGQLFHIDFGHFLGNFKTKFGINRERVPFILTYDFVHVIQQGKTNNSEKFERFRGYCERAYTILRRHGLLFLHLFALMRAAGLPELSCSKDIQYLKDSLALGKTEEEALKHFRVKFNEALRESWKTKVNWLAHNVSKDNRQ
PI3K-delta, sequence (P27986 whole entry partner, species assumed): as the sequence (P27986 whole entry partner, species assumed) above

[4] = target: T1, human TOR (Homo sapiens, UniProt P42345); test: mTOR enzyme assay (DELFIA, His6-S6K substrate); details: read-out: mTOR Kinase Avg. IC50
T1 construct: FLAG

[5] = target: PI3K-beta (Homo sapiens, UniProt P42338); test: PI3K-beta fluorescence polarization assay; details: read-out: PI3Kβ Avg. IC50
PI3K-beta, sequence (P42338 whole entry, species assumed): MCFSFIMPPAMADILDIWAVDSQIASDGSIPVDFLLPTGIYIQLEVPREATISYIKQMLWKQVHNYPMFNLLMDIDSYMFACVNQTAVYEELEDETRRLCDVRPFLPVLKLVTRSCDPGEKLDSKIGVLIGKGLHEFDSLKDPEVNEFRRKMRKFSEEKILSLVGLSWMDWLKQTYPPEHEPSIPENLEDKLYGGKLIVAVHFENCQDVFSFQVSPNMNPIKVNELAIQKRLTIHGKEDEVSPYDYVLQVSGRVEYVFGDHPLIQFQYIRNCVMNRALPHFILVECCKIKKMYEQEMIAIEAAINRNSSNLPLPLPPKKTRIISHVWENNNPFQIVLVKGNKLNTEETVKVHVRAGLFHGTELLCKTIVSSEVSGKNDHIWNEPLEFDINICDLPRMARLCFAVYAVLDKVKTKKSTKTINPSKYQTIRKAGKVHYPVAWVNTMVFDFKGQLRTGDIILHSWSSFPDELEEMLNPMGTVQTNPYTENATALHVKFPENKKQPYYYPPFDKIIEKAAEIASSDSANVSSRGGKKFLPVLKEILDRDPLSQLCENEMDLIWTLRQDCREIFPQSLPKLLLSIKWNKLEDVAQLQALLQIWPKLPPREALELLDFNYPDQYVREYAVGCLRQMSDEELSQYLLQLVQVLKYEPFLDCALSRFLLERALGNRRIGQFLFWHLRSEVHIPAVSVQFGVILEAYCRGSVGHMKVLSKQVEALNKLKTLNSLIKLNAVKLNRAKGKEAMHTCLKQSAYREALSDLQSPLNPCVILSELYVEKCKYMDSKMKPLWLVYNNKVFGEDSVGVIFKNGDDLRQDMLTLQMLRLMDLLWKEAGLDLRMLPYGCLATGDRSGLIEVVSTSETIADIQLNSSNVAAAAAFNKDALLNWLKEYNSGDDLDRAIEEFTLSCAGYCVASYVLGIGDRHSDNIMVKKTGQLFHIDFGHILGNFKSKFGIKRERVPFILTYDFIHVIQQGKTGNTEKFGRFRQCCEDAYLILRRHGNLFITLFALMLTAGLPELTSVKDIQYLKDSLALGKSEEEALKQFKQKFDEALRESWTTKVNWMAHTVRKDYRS
PI3K-beta, sequence (P27986 whole entry partner, species assumed): as the sequence (P27986 whole entry partner, species assumed) above
Summary of the method: as §1

PI3K-gamma, sequence (P48736 whole entry, species assumed, the tested form may be a part, canonical isoform): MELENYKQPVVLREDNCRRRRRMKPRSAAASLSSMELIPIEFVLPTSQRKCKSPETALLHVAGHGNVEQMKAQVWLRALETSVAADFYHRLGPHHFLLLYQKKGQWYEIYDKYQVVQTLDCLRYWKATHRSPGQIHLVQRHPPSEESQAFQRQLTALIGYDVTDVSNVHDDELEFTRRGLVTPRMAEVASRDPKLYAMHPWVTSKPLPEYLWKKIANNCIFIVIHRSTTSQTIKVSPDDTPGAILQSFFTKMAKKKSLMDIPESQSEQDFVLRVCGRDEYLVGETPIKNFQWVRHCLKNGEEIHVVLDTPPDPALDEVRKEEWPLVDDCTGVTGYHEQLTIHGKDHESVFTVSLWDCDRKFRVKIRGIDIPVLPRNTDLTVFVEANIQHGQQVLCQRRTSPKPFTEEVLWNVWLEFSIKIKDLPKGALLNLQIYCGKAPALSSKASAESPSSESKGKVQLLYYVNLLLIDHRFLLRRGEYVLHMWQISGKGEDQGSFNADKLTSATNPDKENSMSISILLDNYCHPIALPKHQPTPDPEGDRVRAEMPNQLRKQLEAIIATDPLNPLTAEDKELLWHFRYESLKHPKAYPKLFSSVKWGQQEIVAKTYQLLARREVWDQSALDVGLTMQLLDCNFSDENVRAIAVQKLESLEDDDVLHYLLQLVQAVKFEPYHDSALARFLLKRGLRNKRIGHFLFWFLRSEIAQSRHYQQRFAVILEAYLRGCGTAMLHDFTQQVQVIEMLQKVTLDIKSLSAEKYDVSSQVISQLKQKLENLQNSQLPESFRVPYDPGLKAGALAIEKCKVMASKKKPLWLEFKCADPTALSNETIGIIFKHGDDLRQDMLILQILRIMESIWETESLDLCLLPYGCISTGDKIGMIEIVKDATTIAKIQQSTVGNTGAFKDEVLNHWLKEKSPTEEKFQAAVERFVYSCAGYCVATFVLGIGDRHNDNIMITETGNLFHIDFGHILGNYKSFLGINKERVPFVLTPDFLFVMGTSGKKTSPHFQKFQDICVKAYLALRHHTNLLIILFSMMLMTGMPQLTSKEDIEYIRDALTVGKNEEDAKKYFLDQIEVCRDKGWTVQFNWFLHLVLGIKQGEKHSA

SMILES | IC50 [1] [nM] | IC50 [2] [nM] | IC50 [3] [nM] | IC50 [4] [nM] | IC50 [5] [nM]
COc1ccc2c(c1)c(/C=C1\Oc3cc(O)cc(O)c3C1=O)cn2CCN1CCN(C)CC1 [Example 308, (2Z)-4,6-Dihydroxy-2-({5-methoxy-1-[2-(4-methylpiperazin-1-yl)ethyl]-1H-indol-3-yl}methylene)-1-benzofuran-3(2H)-one] | 1030 | 25.5 | 5.5 | 270 | 23.5
COc1ccc2[nH]c(-c3ccccc3)c(/C=C3\Oc4cc(O)ccc4C3=O)c2c1 [Example 310, (2Z)-6-Hydroxy-2-[(5-methoxy-2-phenyl-1H-indol-3-yl)methylene]-1-benzofuran-3(2H)-one] | 13.5 | < 2.1 | 0.9 | 92 | 11.5
COc1ccc2c(c1)c(/C=C1\Oc3cc(O)cc(O)c3C1=O)c(C(=O)N(C)C)n2CCN1CCN(C)CC1 [Example 316, 3-[(Z)-(4,6-Dihydroxy-3-oxo-1-benzofuran-2(3H)-ylidene)methyl]-5-methoxy-N,N-dimethyl-1-[2-(4-methylpiperazin-1-yl)ethyl]-1H-indole-2-carboxamide] | 278 | < 2.7 | 1.5 | 14.5 | 25
COc1ccc2c(c1)c(/C=C1\Oc3cc(O)cc(O)c3C1=O)cn2CCO [Example 317, (2Z)-4,6-Dihydroxy-2-{[1-(2-hydroxyethyl)-5-methoxy-1H-indol-3-yl]methylene}-1-benzofuran-3(2H)-one] | 92.5 | 17 | 8.5 | 77.5 | 64
COc1ccc2c(c1)c(/C=C1\Oc3cc(O)cc(O)c3C1=O)cn2CC(=O)N(C)C [Example 318, 2-{3-[(Z)-(4,6-Dihydroxy-3-oxo-1-benzofuran-2(3H)-ylidene)methyl]-5-methoxy-1H-indol-1-yl}-N,N-dimethylacetamide] | 686 | 83.3 | 27 | 250 | 739
COc1ccc2c(c1)c(/C=C1\Oc3cc(O)cc(O)c3C1=O)cn2CCN1CCC(O)CC1 [Example 319, (2Z)-4,6-Dihydroxy-2-({1-[2-(4-hydroxypiperidin-1-yl)ethyl]-5-methoxy-1H-indol-3-yl}methylene)-1-benzofuran-3(2H)-one] | 117 | 38.3 | 3.5 | 265 | 108
COc1ccc2c(c1)c(/C=C1\Oc3cc(O)cc(O)c3C1=O)c(C)n2CCN1CCC(O)CC1 [Example 320, (2Z)-4,6-Dihydroxy-2-({1-[2-(4-hydroxypiperidin-1-yl)ethyl]-5-methoxy-2-methyl-1H-indol-3-yl}methylene)-1-benzofuran-3(2H)-one] | 36.5 | 3 | 0.8 | 12.8 | 22
COc1ccc2c(c1)c(/C=C1\Oc3cc(O)cc(O)c3C1=O)c(C)n2CCO [Example 321, (2Z)-4,6-Dihydroxy-2-{[1-(2-hydroxyethyl)-5-methoxy-2-methyl-1H-indol-3-yl]methylene}-1-benzofuran-3(2H)-one] | 15.5 | 2 | 1.8 | 6.85 | 10
COc1ccc2c(c1)c(/C=C1\Oc3cc(O)cc(O)c3C1=O)cn2CCCN(C)C [Example 323, (2Z)-2-({1-[3-(Dimethylamino)propyl]-5-methoxy-1H-indol-3-yl}methylene)-4,6-dihydroxy-1-benzofuran-3(2H)-one] | 605 | 20.5 | 4 | 930 | 120
COc1ccc2c(c1)c(/C=C1\Oc3cc(O)cc(O)c3C1=O)cn2CCN1CCC(O)C1 (centres unmarked) [Example 326, (2Z)-4,6-Dihydroxy-2-({1-[2-(3-hydroxypyrrolidin-1-yl)ethyl]-5-methoxy-1H-indol-3-yl}methylene)-1-benzofuran-3(2H)-one] | 150 | 58 | 9.5 | 540 | 88
COc1ccc2c(c1)c(/C=C1\Oc3cc(O)cc(O)c3C1=O)c(C)n2CCN1CCC(O)C1 (centres unmarked) [Example 327, (2Z)-4,6-Dihydroxy-2-({1-[2-(3-hydroxypyrrolidin-1-yl)ethyl]-5-methoxy-2-methyl-1H-indol-3-yl}methylene)-1-benzofuran-3(2H)-one] | 39 | 11 | 2.5 | < 30 | 9.5
COc1ccc2c(c1)c(/C=C1\Oc3cc(O)cc(O)c3C1=O)c(C)n2CCn1ccnc1 [Example 328, (2Z)-4,6-Dihydroxy-2-({1-[2-(1H-imidazol-1-yl)ethyl]-5-methoxy-2-methyl-1H-indol-3-yl}methylene)-1-benzofuran-3(2H)-one] | 15.5 | 6 | 2 | < 24 | 2.5
COc1ccc2c(c1)c(/C=C1\Oc3cc(O)cc(O)c3C1=O)c(-c1cnn(C)c1)n2CC(=O)N(C)C [Example 329, 2-{3-[(Z)-(4,6-Dihydroxy-3-oxo-1-benzofuran-2(3H)-ylidene)methyl]-5-methoxy-2-(1-methyl-1H-pyrazol-4-yl)-1H-indol-1-yl}-N,N-dimethylacetamide] | 130 | 12.5 | 18.5 | 39 | 51.6
COc1ccc2[nH]c(-c3cnn(C)c3)c(/C=C3\Oc4cc(O)cc(O)c4C3=O)c2c1 [Example 330, (2Z)-4,6-Dihydroxy-2-{[5-methoxy-2-(1-methyl-1H-pyrazol-4-yl)-1H-indol-3-yl]methylene}-1-benzofuran-3(2H)-one] | 3 | < 1.8 | 1.5 | < 17 | 1
COc1ccc2[nH]c(C(=O)N3CCN(C)CC3)c(/C=C3\Oc4cc(O)cc(O)c4C3=O)c2c1 [Example 331, (2Z)-4,6-Dihydroxy-2-({5-methoxy-2-[(4-methylpiperazin-1-yl)carbonyl]-1H-indol-3-yl}methylene)-1-benzofuran-3(2H)-one] | 39.5 | 4 | 6.5 | 49.5 | 5.5
COc1ccc2c(c1)c(/C=C1\Oc3cc(O)cc(O)c3C1=O)c(C(F)(F)F)n2CCO [Example 332, (2Z)-4,6-Dihydroxy-2-{[1-(2-hydroxyethyl)-5-methoxy-2-(trifluoromethyl)-1H-indol-3-yl]methylene}-1-benzofuran-3(2H)-one] | 22 | 5 | 7.8 | < 21 | 13.3
COc1ccc2c(c1)c(/C=C1\Oc3cc(O)cc(O)c3C1=O)c(C(F)(F)F)n2CC(=O)N(C)C [Example 333, 2-{3-[(Z)-(4,6-Dihydroxy-3-oxo-1-benzofuran-2(3H)-ylidene)methyl]-5-methoxy-2-(trifluoromethyl)-1H-indol-1-yl}-N,N-dimethylacetamide] | 159 | 66 | 51 | 53 | 203
COc1ccc2c(c1)c(/C=C1\Oc3cc(O)cc(O)c3C1=O)c(C1CC1)n2CCn1ccnc1 [Example 334, (2Z)-2-({2-Cyclopropyl-1-[2-(1H-imidazol-1-yl)ethyl]-5-methoxy-1H-indol-3-yl}methylene)-4,6-dihydroxy-1-benzofuran-3(2H)-one] | 2.2 | 1.3 | 1.5 | < 17 | 1.2
COc1ccc2c(c1)c(/C=C1\Oc3cc(O)ccc3C1=O)c(C(=O)N(C)C)n2CCN1CCN(C)CC1 [Example 335, 3-[(Z)-(6-Hydroxy-3-oxo-1-benzofuran-2(3H)-ylidene)methyl]-5-methoxy-N,N-dimethyl-1-[2-(4-methylpiperazin-1-yl)ethyl]-1H-indole-2-carboxamide] | 588 | 9 | 2 | 1650 | 22
COc1ccc2c(c1)c(/C=C1\Oc3cc(O)cc(O)c3C1=O)c(C(F)(F)F)n2CCN1CCN(C)CC1 [Example 336, (2Z)-4,6-Dihydroxy-2-({5-methoxy-1-[2-(4-methylpiperazin-1-yl)ethyl]-2-(trifluoromethyl)-1H-indol-3-yl}methylene)-1-benzofuran-3(2H)-one] | 61.7 | 4 | 1 | < 22 | 4.1
COc1ccc2c(c1)c(/C=C1\Oc3cc(O)cc(O)c3C1=O)c(C(F)(F)F)n2CCn1cccn1 [Example 337, (2Z)-4,6-Dihydroxy-2-({5-methoxy-1-[2-(1H-pyrazol-1-yl)ethyl]-2-(trifluoromethyl)-1H-indol-3-yl}methylene)-1-benzofuran-3(2H)-one] | 7 | 13 | 9.7 | 20.5 | 75.3
COc1ccc2c(c1)c(/C=C1\Oc3cc(O)cc(C)c3C1=O)c(C)n2CCN1CCN(C)CC1 [Example 338, (2Z)-6-Hydroxy-2-({5-methoxy-2-methyl-1-[2-(4-methylpiperazin-1-yl)ethyl]-1H-indol-3-yl}methylene)-4-methyl-1-benzofuran-3(2H)-one] | 666 | 22 | 3 | > 160 | 57.7
